Values quoted from earlier work as cited in the CATMoS acute toxicity set (Mansouri et al. 2021).
Several values for one entry are separate records, joined by “and”; a condition that tells them apart may be missing. Equal entries are not always repeated.

Assay: rat acute oral toxicity
Conditions: in vivo
Excerpt: […]The data set underlying the modeling effort for this project was initially compiled by NICEATM and U.S. EPA’s CCTE. Briefly, LD50 data were collected from rat acute oral systemic toxicity tests, including limit tests, ranges/confidence intervals, and discrete LD50 values. The full data set included 21,200 LD50 entries for 15,688 substances. […] Data were reviewed to ensure that LD50 values with obvious errors in the extracted data such as unit conversion errors (e.g., comma and decimal separator misplacements) were either fixed or removed. After this review, 16,209 LD50 values remained. Many of the chemicals represented had multiple LD50 entries, requiring that a single representative value per Chemical Abstracts Service Registry Number (CASRN) identifier be defined to facilitate modeling efforts. Based on ATWG feedback and to define the representative LD50 as a protective value while accounting for the distribution across multiple LD50s, the median of the lowest quartile was computed using only discrete LD50 values (omitting limit test data and range and confidence interval data). A detailed summary of the data compilation is available online on the NICEATM webpage dedicated to the collaborative modeling project (NTP 2020).
[…][…] For categorical designations, limit test and range/confidence interval LD50 data were integrated wherever possible. As such, the number of chemicals with end point values/calls varies across the modeling end points (Table 3) based on whether chemicals had representative LD50 values and/or other data. If a chemical had both, the representative value was used to determine categorical calls rather than limit test data. Some data were useable only for certain end points and categories depending on the thresholds. For example, ranges that spanned multiple hazard categories were considered only for the binary (very toxic/nontoxic) end points and omitted from rendering a determination for hazard category assignment.
[…]The final data set comprising 11,992 chemicals was split into training and evaluation sets […], respectively. This process was performed semirandomly by ordering chemicals based on the five end points (categorical and continuous LD50 values) and partitioning every fourth record into the evaluation set accordingly. This approach was taken to ensure an equivalent distribution of the LD50 values and the different hazard categories between the training and the evaluation sets without supervised sampling of the chemicals based on structures (Figure 1A). The sources of the chemical structures were also kept equivalent between the two sets, with chemical structures obtained from DSSTox, being the highest quality, representing over 75% of each set (Figure 1B).

Row | SMILES | LD50
1 | O=C(NN=C1SCCS1)c1ccccc1 | 72.8 mg/kg
2 | CCN1CCCC1CNC(=O)c1cc(S(=O)(=O)CC)ccc1OC (configuration not stated) | 2100 mg/kg
3 | FC(F)(F)c1nc2c(Cl)c(Cl)c(Br)cc2[nH]1 | 2.78 mg/kg
4 | CCc1c(C)[nH]c2c1C(=O)C1CN(C)CCC1C2 (configuration not stated) | 220 mg/kg
5 | CCCCCCOC(=O)c1ccccc1 | 12300 mg/kg
6 | C[C@H](N)[C@H](O)c1ccccc1 | 1540 mg/kg
7 | Cc1cccnc1N | 100 mg/kg
8 | O=C(O)COc1ccccc1 | 1500 mg/kg
9 | CC(c1ccccc1)c1ccccc1CCl (configuration not stated) | 4700 mg/kg
10 | CCN(CCCC(=O)C1CCCCC1)C(C)Cc1ccc(OC)cc1 (configuration not stated) | 369 mg/kg
11 | CC(C(=O)O)c1ccc(-c2ccccc2F)cc1 (configuration not stated) | 337 mg/kg
12 | CC1CCCc2ccccc21 (configuration not stated) | 6700 mg/kg
13 | O=C1CSC2(CCN(CCCN3c4ccccc4Sc4ccc(Cl)cc43)CC2)N1 | 3800 mg/kg
14 | C#CCBr | 53 mg/kg
15 | CC[C@H](C)N | 380 mg/kg
16 | NN1C(=O)CSC1=S | 2.21 mg/kg
17 | Clc1ccc(CCC(Cn2ccnc2)Sc2c(Cl)cccc2Cl)cc1 (configuration not stated) | 1720 mg/kg
18 | OCCNCCOc1ccc(C(=C(c2ccccc2)C(F)(F)F)c2ccccc2)cc1 | 1400 mg/kg
19 | Nc1cccc2c3c([nH]c12)CCCC3 | 1380 mg/kg
20 | CCCCCCCOCCOCCO | 2940 mg/kg
21 | CCCCOCCOC(=O)c1ccccc1C(=O)OCCOCCCC | 8380 mg/kg

Row | SMILES | LD50
22 | N#CN=c1ccccn1Cc1c(Cl)cccc1Cl | 500 mg/kg
23 | CC12CCC3c4ccc(O)cc4CCC3C1CC[C@@H]2OC(=O)COC(=O)CCCc1ccc(N(CCCl)CCCl)cc1 (some centres not stated) | 682 mg/kg
24 | CC(C)(C)OC(=O)N1CC(=O)C1 | 2500 mg/kg
25 | OC1(c2cccc(Cl)c2)c2ccccc2C2=NCCN21 (configuration not stated) | 200 mg/kg
26 | CN(C)C=C1C(=O)N(c2ccccc2)N=C1c1ccccc1 | 890 mg/kg
27 | CCCCOCCOCCOCCOCCOCCCC | 6500 mg/kg
28 | O=S(=O)(F)C(F)(F)C(F)(F)C(F)(F)C(F)(F)C(F)(F)C(F)(F)C(F)(F)C(F)(F)F | 154 mg/kg
29 | Cc1cnc(C)cn1 | 1020 mg/kg
30 | C=CC[N+](C)(C)CC=C | 3000 mg/kg
31 | C=CCOC(=O)CC(SP(=S)(OC)OC)C(=O)OCC(C)SP(=S)(OC)OC (configuration not stated) | 762 mg/kg
32 | CC(Oc1ccc(Oc2nc3ccc(Cl)cc3o2)cc1)C(=O)O (configuration not stated) | 2360 mg/kg
33 | Cc1ccc(Cc2ccc(C)cc2)cc1 | 3800 mg/kg and 1700 mg/kg
34 | COc1cc(CCC(C)=O)ccc1O | 2580 mg/kg
35 | BrC12CC3CC(CC(C3)C1)C2 | 8470 mg/kg
36 | CC(C)OC(=O)c1ccccc1 | 3730 mg/kg
37 | O=S1(=O)CC(Cl)C(Cl)C1 (configuration not stated) | 482 mg/kg
38 | CCOc1ccccc1N1CCN(CC=Cc2ccc3c(c2)CCC(=O)N3)CC1 | 500 mg/kg
39 | CNC(=O)c1cc(-c2ccccc2)ccc1OCCO | 2700 mg/kg
40 | CCNC(=O)Cc1ccccc1 | 756 mg/kg
41 | COc1ccnc(CS(=O)c2nc3cc(OC(F)F)ccc3[nH]2)c1OC (configuration not stated) | 747 mg/kg
42 | CCCOc1ccc(C(CN(C)C)C(C)CC)cc1Cl (configuration not stated) | 741 mg/kg

Row | SMILES | LD50
43 | CCN(CC)c1ccc(N)c(C)c1 | 200 mg/kg
44 | C=CC(C)(O)CCC=C(C)C (configuration not stated) | 2790 mg/kg
45 | O=C(OCC=Cc1ccccc1)c1ccccc1 | 4000 mg/kg
46 | CN1CCC(C=C2c3ccccc3CCc3ccccc32)C1 (configuration not stated) | 303 mg/kg
47 | N#C/C(=C1\SCC(c2ccccc2Cl)S1)n1ccnc1 (configuration not stated) | 652 mg/kg
48 | CC(C)(C)c1ccc(OCC(O)COc2ccc(C(=O)O)cc2)cc1 (configuration not stated) | 2400 mg/kg
49 | COP(=O)(OC)OC | 840 mg/kg
50 | O=C1N=C2c3ccccc3N=CN2C1=Cc1ccc([N+](=O)[O-])cc1 | 1290 mg/kg
51 | CCN(CC)C(=O)c1cc(=O)c2ccccc2o1 | 4000 mg/kg
52 | COC(=O)c1cccc(CCN(C)Cc2ccccc2)c1 | 700 mg/kg
53 | NC1CCN(c2cccc(Cl)n2)CC1 | 190 mg/kg
54 | CO[Si](CCCCCCCCCC[Si](OC)(OC)OC)(OC)OC | 2200 mg/kg
55 | CCCCCCCCCc1ccc(O)cc1 | 1620 mg/kg
56 | O=c1n(CC2CO2)c(=O)n(CC2CO2)n1CC1CO1 (configuration not stated) | 250 mg/kg
57 | FCCOC(Cl)C(Cl)(Cl)Cl (configuration not stated) | 18 mg/kg
58 | CC(C)(Oc1ccc(Cl)cc1)C(=O)O | 897 mg/kg
59 | COCC(=O)NP(=O)(OC)SC (configuration not stated) | 200 mg/kg
60 | CCCN(COC(C)=O)N=O | 1000 mg/kg
61 | N#Cc1ccc2c(c1)N(CCCN1CCC(O)CC1)c1ccccc1S2 | 395 mg/kg
62 | CCOP(=O)(OC=CCl)OCC | 7 mg/kg
